{
  "source": "patent US8835124B2",
  "about": "“Method for treating cancer with agents that bind phosphorylated CDC27” (The Nemours Foundation, priority 2011, dated 2014)",
  "key": {"[1]": {"biological_target": "T1, cystic fibrosis transmembrane conductance regulator (CFTR) (Homo sapiens, UniProt P13569)", "T1 construct": "host or cells: microsomes and intact cells (not further described)", "T1 sequence (P13569 whole entry, species assumed)": "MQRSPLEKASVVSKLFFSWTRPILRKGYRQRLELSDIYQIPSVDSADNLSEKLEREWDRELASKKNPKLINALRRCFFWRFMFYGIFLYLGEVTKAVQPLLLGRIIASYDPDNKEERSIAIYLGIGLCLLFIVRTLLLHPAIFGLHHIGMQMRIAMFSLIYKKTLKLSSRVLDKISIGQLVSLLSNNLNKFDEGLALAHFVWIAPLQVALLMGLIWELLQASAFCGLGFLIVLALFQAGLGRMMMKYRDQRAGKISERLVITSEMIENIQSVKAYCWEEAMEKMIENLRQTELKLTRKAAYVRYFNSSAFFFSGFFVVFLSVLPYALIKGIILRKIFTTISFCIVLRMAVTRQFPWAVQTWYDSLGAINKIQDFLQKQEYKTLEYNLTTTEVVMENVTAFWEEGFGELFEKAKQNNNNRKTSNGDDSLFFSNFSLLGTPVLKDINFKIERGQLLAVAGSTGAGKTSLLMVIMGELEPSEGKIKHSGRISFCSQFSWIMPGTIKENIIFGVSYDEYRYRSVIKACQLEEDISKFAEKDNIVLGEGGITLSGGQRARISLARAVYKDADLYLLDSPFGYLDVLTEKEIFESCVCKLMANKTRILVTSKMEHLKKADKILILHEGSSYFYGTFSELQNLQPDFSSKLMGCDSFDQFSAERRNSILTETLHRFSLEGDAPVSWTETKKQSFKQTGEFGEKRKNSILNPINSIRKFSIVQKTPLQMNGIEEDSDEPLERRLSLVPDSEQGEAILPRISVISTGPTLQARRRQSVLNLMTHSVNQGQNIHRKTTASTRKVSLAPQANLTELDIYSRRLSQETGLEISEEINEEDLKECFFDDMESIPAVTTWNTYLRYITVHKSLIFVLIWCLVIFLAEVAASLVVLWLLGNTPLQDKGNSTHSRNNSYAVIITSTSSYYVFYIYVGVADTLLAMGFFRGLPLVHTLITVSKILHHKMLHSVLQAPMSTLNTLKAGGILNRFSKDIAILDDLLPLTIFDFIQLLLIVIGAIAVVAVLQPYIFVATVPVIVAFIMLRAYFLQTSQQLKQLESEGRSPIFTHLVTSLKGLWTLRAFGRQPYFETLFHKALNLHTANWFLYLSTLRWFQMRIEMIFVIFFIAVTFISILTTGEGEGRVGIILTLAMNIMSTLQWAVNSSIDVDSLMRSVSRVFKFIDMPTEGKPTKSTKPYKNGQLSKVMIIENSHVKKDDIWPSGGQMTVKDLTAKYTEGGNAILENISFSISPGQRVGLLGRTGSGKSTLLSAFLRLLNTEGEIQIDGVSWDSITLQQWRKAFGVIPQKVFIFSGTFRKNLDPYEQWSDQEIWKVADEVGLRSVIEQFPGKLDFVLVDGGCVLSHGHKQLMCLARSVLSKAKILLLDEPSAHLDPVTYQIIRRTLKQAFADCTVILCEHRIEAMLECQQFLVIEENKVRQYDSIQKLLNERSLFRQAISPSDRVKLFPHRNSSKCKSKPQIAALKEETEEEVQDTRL", "settings": "in microsomes and in intact cells; cited from earlier work"}, "[2]": {"biological_target": "T2, Cdc27 (Mus musculus, UniProt A2A6Q5)", "T2 construct": "from tissue; host or cells: medulloblastoma tumours of Smo/Smo mice", "T2 sequence (A2A6Q5 whole entry)": "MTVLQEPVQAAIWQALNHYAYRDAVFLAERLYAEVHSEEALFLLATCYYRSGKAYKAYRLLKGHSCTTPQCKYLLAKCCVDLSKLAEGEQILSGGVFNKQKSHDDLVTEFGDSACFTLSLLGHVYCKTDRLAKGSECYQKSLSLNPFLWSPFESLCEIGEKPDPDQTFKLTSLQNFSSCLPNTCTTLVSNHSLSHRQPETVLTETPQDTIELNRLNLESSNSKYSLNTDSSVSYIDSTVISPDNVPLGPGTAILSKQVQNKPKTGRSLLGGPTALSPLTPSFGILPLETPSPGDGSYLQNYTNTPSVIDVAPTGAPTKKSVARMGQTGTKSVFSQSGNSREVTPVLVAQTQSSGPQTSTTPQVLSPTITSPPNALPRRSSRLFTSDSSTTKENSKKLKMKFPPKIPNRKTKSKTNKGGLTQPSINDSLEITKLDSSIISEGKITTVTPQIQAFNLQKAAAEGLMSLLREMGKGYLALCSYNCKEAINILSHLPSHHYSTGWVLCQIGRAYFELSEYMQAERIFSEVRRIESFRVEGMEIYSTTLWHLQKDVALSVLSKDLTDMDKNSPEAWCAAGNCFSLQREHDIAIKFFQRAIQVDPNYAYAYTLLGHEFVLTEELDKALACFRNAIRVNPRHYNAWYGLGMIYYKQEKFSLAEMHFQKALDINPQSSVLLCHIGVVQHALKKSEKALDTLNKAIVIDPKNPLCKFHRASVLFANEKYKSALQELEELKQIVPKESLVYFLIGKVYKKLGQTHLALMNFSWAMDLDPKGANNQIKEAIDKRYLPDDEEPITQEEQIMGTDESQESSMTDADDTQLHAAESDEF", "test": "Cdc27 immunoblot of medulloblastoma samples from treated Smo/Smo mice", "type": "in vivo", "settings": "curcumin-treated vs corn oil control mice", "procedure": "Tumors of control and curcumin-treated mice were harvested exactly as described (Lee et al., 2011, BMC Cancer 11:144). Animal experiments were performed according to the NIH Guide for the Care and Use of Experimental Animals and approved by our Institutional Animal Care and Use Committee.\nCdc27 levels in the Smo/Smo mouse tumors were determined by immunoblot of Cdc27. Tubulin is shown for equal loading. The Cdc27 levels were reduced (FIG. 4) when compared with control mice."}, "[3]": {"test_system": "NT2 and MDCK cells", "test": "Cell cycle progression after release from thymidine/nocodazole block", "type": "cell-based", "settings": "different concentrations of curcumin", "procedure": "(§1) For analysis of cell cycle profiles after mitotic block, cells were synchronized with 2 mM thymidine for 24 hours. The block was released for 3 hours and cells were arrested in prometaphase with 100 nM nocodazole for 12 hours. For G1/S arrest, cells were synchronized for 18 hours with 2 mM thymidine, released for 9 hours, followed by a second thymidine arrest for 18 hours. The block was then released in the presence of DMSO or curcumin as indicated and the cells were processed as described above.\nNT2 and MDCK cells were arrested with thymidine/nocodazole treatment. […] DNA contents were analyzed for cell cycle progression. The data shown in FIG. 7 are expressed as mean±SEM of three independent experiments."}, "[4]": {"test_system": "Cdc27", "test": "Cdc27 immunoblot of cell lines after curcumin treatment", "type": "cell-based", "settings": "20 μM curcumin for 0, 4, 8 and 24 hours; DAOY, NT2, D283 Med, D341 Med, HCT116, HT1376, RT4, MDCK", "procedure": "(§2) Cell lysates were prepared in a buffer containing 20 mM Tris (pH 7.5), 150 mM NaCl, 1 mM EDTA, 1 mM EGTA, 0.1% Triton X-100, 2.5 mM sodium pyrophosphate, 1 mM β-glycerol phosphate, 1 mM sodium vanadate, 1 mM phenylmethylsulfonyl fluoride and 5 μg/ml of antipapain, leupeptin and pepstatin (protease inhibitor cocktail). Protein concentrations were determined by the Dc protein assay (Bio-Rad, Hercules, Calif.). Equal amounts of protein were resolved by SDS-PAGE and transferred to nitrocellulose. The membranes were blocked in 5% non-fat milk in Tris-buffered saline with 0.1% […] (TBST). Primary antibodies diluted in 5% bovine serum albumin/TBST were incubated overnight at 4° C. and HRP-conjugated secondary antibodies in 5% non-fat milk/TBST for 2 hours at room temperature. Protein bands were visualized by Enhanced Chemiluminescence Plus (GE Healthcare, Piscataway, N.J.).\nThe cell lines DAOY, NT2, D283 Med, D341 Med (brain); HCT116 (colon); HT1376, RT4 (bladder); MDCK (kidney) were screened for Cdc27 phosphorylation by immunoblot of Cdc27. […] Actin immunoblot is shown as loading control.\nArrows indicate crosslinked Cdc27, while arrowheads show phosphorylated Cdc27. Equal amounts of protein were used as shown by actin immunoblot."}, "[5]": {"test_system": "DAOY cells", "test": "LDH release cytotoxicity assay", "type": "cell-based, human", "settings": "24 hours, 0, 5, 10 and 20 μM; high phosphorylated Cdc27", "description": "(§3) Lactate dehydrogenase (LDH) levels as a measure of cell death were determined using the Non-radioactive Cytotoxicity kit (Promega, Madison, Wis.) according to manufacturer's instructions. […] Cell debris was removed by centrifugation. Viable cell LDH was collected from cells lysed by freezing for 15 minutes at −70° C. followed by thawing at 37° C. The medium was collected and cleared from cell debris by centrifugation. The relative release of LDH was determined as the ratio of released LDH versus total LDH from viable cells.\nData represent mean±SEM of three independent experiments."}, "[6]": {"test_system": "HT1376 cells", "test": "LDH release cytotoxicity assay", "type": "cell-based", "settings": "24 hours, 0, 5, 10 and 20 μM; low phosphorylated Cdc27", "description": "as §3"}, "[7]": {"test_system": "DAOY medulloblastoma cells", "test": "Cell cycle analysis by flow cytometry after release from G1/S block", "type": "cell-based, human", "settings": "for G0/G1 / G2/M / S: DAOY released from G1/S block", "procedure": "DNA was stained with 100 μg/ml propidium iodide (PI) in hypotonic citrate buffer with 20 μg/ml ribonuclease A. Stained nuclei were analyzed for DNA-PI fluorescence using an Accuri C6 flow cytometer (Accuri Cytometers Inc., Ann Arbor, Mich.). Resulting DNA distributions for sub G0/G1, G0/G1, S and G2/M phase of the cell cycle were analyzed with CFlow plus software (Accuri Cytometers Inc).\nas §1\nDNA was stained with 100 μg/ml propidium iodide (PI) in hypotonic citrate buffer with 20 μg/ml ribonuclease A. Stained nuclei were analyzed for DNA-PI fluorescence using an Accuri C6 flow cytometer (Accuri Cytometers Inc., Ann Arbor, Mich.). Resulting DNA distributions for sub G0/G1, G0/G1, S and G2/M phase of the cell cycle were analyzed with CFlow plus software (Accuri Cytometers. Inc).\nFor analysis of cell cycle profiles after mitotic block, cells were synchronized with 2 mM thymidine for 24 hours. The block was released for 3 hours and cells were arrested in prometaphase with 100 nM nocodazole for 12 hours. For G1/S arrest, cells were synchronized for 18 hours with 2 mM thymidine, released for 9 hours, followed by a second thymidine arrest for 18 hours. The block was then released in the presence of DMSO or curcumin as indicated and the cells were processed as described above. […] The data from these cell cycle studies are the mean±SEM of three independent experiments.\nAt 0, 4, 8, 12, 16 and 20 hours, cell cycle progression was analyzed by flow cytometry."}, "[8]": {"test_system": "Cdc27, cyclin B1, securin, cyclin D1, APC2, p55Cdc20", "test": "Immunoblotting of DAOY cells released from mitotic block", "type": "cell-based, human", "procedure": "as §2"}, "[9]": {"test_system": "medulloblastoma cells", "settings": "cited from earlier work"}},
  "data": [
    {"molecule": "COc1cc(/C=C/C(=O)CC(=O)/C=C/c2ccc(O)c(OC)c2)ccc1O", "note": "[Curcumin, (E,E)-1,7-bis(4-hydroxy-3-methoxyphenyl)-1,6-heptadiene-3,5-dion]", "values": [
      {"measurement": "crosslinking of CFTR polypeptides", "setting": "[1]", "value": "can crosslink CFTR polypeptides into SDS-resistant oligomers"},
      {"measurement": "Cdc27 levels in Smo/Smo mouse tumors", "setting": "[2]", "value": "reduced"},
      {"measurement": "mitotic progression after release from mitotic block", "setting": "[3]", "value": "selectively blocks mitotic progression in different cell lines with phosphorylated APC3/Cdc27"},
      {"measurement": "crosslinking of Cdc27 in cell lines", "setting": "[4]", "value": "Only in cell lines with the phosphorylated form of Cdc27 was curcumin able to crosslink Cdc27"},
      {"measurement": "sensitivity to curcumin-induced apoptosis (LDH release)", "setting": "[5]", "value": "most sensitive"},
      {"measurement": "sensitivity to curcumin-induced apoptosis (LDH release)", "setting": "[6]", "value": "almost unaffected"},
      {"measurement": "cells that had not re-entered G0/G1", "setting": "[7]; 20 μM curcumin, 20 hours after removal of the thymidine block", "value": 56.9, "unit": "%"},
      {"measurement": "time after release at which cells reached G2/M", "setting": "[7]; DAOY released from G1/S block in the presence of 10 μM curcumin (control 8-12 hours)", "value": "12 to 16", "unit": "h"},
      {"measurement": "time after release at which cells reached G2/M", "setting": "[7]; DAOY released from G1/S block in the presence of 20 μM curcumin (control 8-12 hours)", "value": "16 to 20", "unit": "h"},
      {"measurement": "sub-G0/G1 signal (apoptosis)", "setting": "[7]; DAOY released from G1/S block with curcumin, up to 20 hours", "value": "no sub-G0/G1 signal, was detected"},
      {"measurement": "G0/G1", "setting": "[7]; 10 μM Curcumin, 0 Hr", "value": "48.15 ± 0.32", "unit": "%"},
      {"measurement": "G2/M", "setting": "[7]; 10 μM Curcumin, 0 Hr", "value": "32.96 ± 1.97", "unit": "%"},
      {"measurement": "S", "setting": "[7]; 10 μM Curcumin, 0 Hr", "value": "18.89 ± 2.17", "unit": "%"},
      {"measurement": "G0/G1", "setting": "[7]; 10 μM Curcumin, 4 Hr", "value": "41.92 ± 5.16", "unit": "%"},
      {"measurement": "G2/M", "setting": "[7]; 10 μM Curcumin, 4 Hr", "value": "25.88 ± 3.55", "unit": "%"},
      {"measurement": "S", "setting": "[7]; 10 μM Curcumin, 4 Hr", "value": "32.13 ± 2.64", "unit": "%"},
      {"measurement": "G0/G1", "setting": "[7]; 10 μM Curcumin, 8 Hr", "value": "24.94 ± 4.83", "unit": "%"},
      {"measurement": "G2/M", "setting": "[7]; 10 μM Curcumin, 8 Hr", "value": "35.33 ± 5.04", "unit": "%"},
      {"measurement": "S", "setting": "[7]; 10 μM Curcumin, 8 Hr", "value": "39.71 ± 4.45", "unit": "%"},
      {"measurement": "G0/G1", "setting": "[7]; 10 μM Curcumin, 12 Hr", "value": "32.40 ± 8.28", "unit": "%"},
      {"measurement": "G2/M", "setting": "[7]; 10 μM Curcumin, 12 Hr", "value": "44.92 ± 11.40", "unit": "%"},
      {"measurement": "S", "setting": "[7]; 10 μM Curcumin, 12 Hr", "value": "22.71 ± 3.49", "unit": "%"},
      {"measurement": "G0/G1", "setting": "[7]; 10 μM Curcumin, 16 Hr", "value": "42.40 ± 6.35", "unit": "%"},
      {"measurement": "G2/M", "setting": "[7]; 10 μM Curcumin, 16 Hr", "value": "34.85 ± 9.11", "unit": "%"},
      {"measurement": "S", "setting": "[7]; 10 μM Curcumin, 16 Hr", "value": "22.75 ± 3.63", "unit": "%"},
      {"measurement": "G0/G1", "setting": "[7]; 10 μM Curcumin, 20 Hr", "value": "46.46 ± 2.96", "unit": "%"},
      {"measurement": "G2/M", "setting": "[7]; 10 μM Curcumin, 20 Hr", "value": "29.88 ± 3.86", "unit": "%"},
      {"measurement": "S", "setting": "[7]; 10 μM Curcumin, 20 Hr", "value": "23.66 ± 4.26", "unit": "%"},
      {"measurement": "G0/G1", "setting": "[7]; 20 μM Curcumin, 0 Hr", "value": "48.15 ± 0.32", "unit": "%"},
      {"measurement": "G2/M", "setting": "[7]; 20 μM Curcumin, 0 Hr", "value": "32.96 ± 1.97", "unit": "%"},
      {"measurement": "S", "setting": "[7]; 20 μM Curcumin, 0 Hr", "value": "18.89 ± 2.17", "unit": "%"},
      {"measurement": "G0/G1", "setting": "[7]; 20 μM Curcumin, 4 Hr", "value": "40.18 ± 5.31", "unit": "%"},
      {"measurement": "G2/M", "setting": "[7]; 20 μM Curcumin, 4 Hr", "value": "28.33 ± 1.56", "unit": "%"},
      {"measurement": "S", "setting": "[7]; 20 μM Curcumin, 4 Hr", "value": "31.55 ± 3.94", "unit": "%"},
      {"measurement": "G0/G1", "setting": "[7]; 20 μM Curcumin, 8 Hr", "value": "31.66 ± 3.64", "unit": "%"},
      {"measurement": "G2/M", "setting": "[7]; 20 μM Curcumin, 8 Hr", "value": "31.58 ± 2.35", "unit": "%"},
      {"measurement": "S", "setting": "[7]; 20 μM Curcumin, 8 Hr", "value": "36.76 ± 2.49", "unit": "%"},
      {"measurement": "G0/G1", "setting": "[7]; 20 μM Curcumin, 12 Hr", "value": "21.69 ± 2.77", "unit": "%"},
      {"measurement": "G2/M", "setting": "[7]; 20 μM Curcumin, 12 Hr", "value": "40.44 ± 3.95", "unit": "%"},
      {"measurement": "S", "setting": "[7]; 20 μM Curcumin, 12 Hr", "value": "37.87 ± 3.29", "unit": "%"},
      {"measurement": "G0/G1", "setting": "[7]; 20 μM Curcumin, 16 Hr", "value": "20.99 ± 2.17", "unit": "%"},
      {"measurement": "G2/M", "setting": "[7]; 20 μM Curcumin, 16 Hr", "value": "48.68 ± 5.04", "unit": "%"},
      {"measurement": "S", "setting": "[7]; 20 μM Curcumin, 16 Hr", "value": "30.34 ± 4.57", "unit": "%"},
      {"measurement": "G0/G1", "setting": "[7]; 20 μM Curcumin, 20 Hr", "value": "27.44 ± 4.69", "unit": "%"},
      {"measurement": "G2/M", "setting": "[7]; 20 μM Curcumin, 20 Hr", "value": "43.06 ± 5.04", "unit": "%"},
      {"measurement": "S", "setting": "[7]; 20 μM Curcumin, 20 Hr", "value": "29.53 ± 0.59", "unit": "%"},
      {"measurement": "dephosphorylation of Cdc27 over time after release of the mitotic block", "setting": "[8]; 20 and 40 μM curcumin vs DMSO", "value": "not observed"},
      {"measurement": "decreases in the cyclin B1 and securin levels after release of the mitotic block", "setting": "[8]; 20 and 40 μM curcumin vs control", "value": "not found"},
      {"measurement": "levels of APC2, p55Cdc20 or cyclin D1", "setting": "[8]; control vs curcumin-treated cells", "value": "no significant differences"},
      {"measurement": "cell cycle arrest and apoptosis", "setting": "[9]", "value": "induces G2/M arrest and apoptosis"}
    ]}
  ]
}
